Consider one molecule from article PMC5218480 (PLoS ONE, 2017).

This assay concerns MV-4-11 cells. In words: Gene expression microarray analysis (Affymetrix PrimeView) and GSEA. The settings on record: ProbeSet 11718977_a_at; LIST B. More on the design: RFU PODN (11730768_x_at) / Fold change /veh PODN (11730768_x_at) / RFU LINC00158 (11744669_a_at) / Fold change /veh LINC00158 (11744669_a_at) / RFU DUSP10 (11751237_a_at) / Fold change /veh DUSP10 (11751237_a_at) / RFU ID3 (11757404_x_at) / Fold change /veh ID3 (11757404_x_at) / RFU PLEKHG5 (11737974_s_at) / Fold change /veh PLEKHG5 (11737974_s_at) / RFU LRRC4B (11730491_at) / Fold change /veh LRRC4B (11730491_at) / RFU GIMAP4 (11747438_a_at) / Fold change /veh GIMAP4 (11747438_a_at) / RFU KRT8 (11758183_x_at) / Fold change /veh KRT8 (11758183_x_at) / RFU CNN1 (11734310_a_at) / Fold change /veh CNN1 (11734310_a_at) / RFU VPS37D (11726825_at) / Fold change /veh VPS37D (11726825_at) / RFU C10orf10 (11716522_x_at) / Fold change /veh C10orf10 (11716522_x_at) / RFU KIR2DL2 /// KIR2DL4 /// KIR2DL5A /// KIR2DL5B /// KIR2DS1 /// KIR2DS2 /// KIR2DS3 /// KIR2DS4 /// KIR3DL3 /// KIR3DL3 /// KIR3DS1 (11738374_at) / Fold change /veh KIR2DL2 /// KIR2DL4 /// KIR2DL5A /// KIR2DL5B /// KIR2DS1 /// KIR2DS2 /// KIR2DS3 /// KIR2DS4 /// KIR3DL3 /// KIR3DL3 /// KIR3DS1 (11738374_at) / RFU C1QL1 (11718748_at) / Fold change /veh C1QL1 (11718748_at) / RFU TMPRSS4 (11747572_a_at) / Fold change /veh TMPRSS4 (11747572_a_at) / RFU HAMP (11756126_x_at) / Fold change /veh HAMP (11756126_x_at) / RFU RNFT2 (11725882_a_at) / Fold change /veh RNFT2 (11725882_a_at) / RFU NR4A2 (11747474_a_at) / Fold change /veh NR4A2 (11747474_a_at) / RFU ABCC12 (11746883_a_at) / Fold change /veh ABCC12 (11746883_a_at) / RFU TMEM136 (11760407_x_at) / Fold change /veh TMEM136 (11760407_x_at) / RFU CLDN22 /// WWC2 (11732394_at) / Fold change /veh CLDN22 /// WWC2 (11732394_at) / RFU HLA-DPB1 (11760878_x_at) / Fold change /veh HLA-DPB1 (11760878_x_at) / RFU SPINT1 (11716480_a_at) / Fold change /veh SPINT1 (11716480_a_at) / RFU GAP43 (11754022_s_at) / Fold change /veh GAP43 (11754022_s_at) / RFU A4GNT (11735810_at) / Fold change /veh A4GNT (11735810_at) / RFU PRB3 (11715151_x_at) / Fold change /veh PRB3 (11715151_x_at) / RFU TUBB4B (11761932_at) / Fold change /veh TUBB4B (11761932_at) / RFU CAPN14 (11732068_a_at) / Fold change /veh CAPN14 (11732068_a_at) / RFU TMCC2 (11721928_a_at) / Fold change /veh TMCC2 (11721928_a_at) / RFU IRGQ (11745062_a_at) / Fold change /veh IRGQ (11745062_a_at) / RFU FAM174B (11720279_a_at) / Fold change /veh FAM174B (11720279_a_at) / RFU TMPRSS4 (11748680_a_at) / Fold change /veh TMPRSS4 (11748680_a_at) / RFU FAM212B (11763350_a_at) / Fold change /veh FAM212B (11763350_a_at) / RFU PLEKHG5 (11743358_a_at) / Fold change /veh PLEKHG5 (11743358_a_at) / RFU ZSCAN30 (11745921_a_at) / Fold change /veh ZSCAN30 (11745921_a_at) / RFU CMKLR1 (11741424_a_at) / Fold change /veh CMKLR1 (11741424_a_at) / RFU LOC101060620 /// MAPK8IP1 (11723275_at) / Fold change /veh LOC101060620 /// MAPK8IP1 (11723275_at) / RFU SPTSSB (11747773_x_at) / Fold change /veh SPTSSB (11747773_x_at) / RFU PRSS12 (11739890_at) / Fold change /veh PRSS12 (11739890_at) / RFU BIN1 (11741810_x_at) / Fold change /veh BIN1 (11741810_x_at) / RFU WNT11 (11732464_a_at) / Fold change /veh WNT11 (11732464_a_at) / RFU C10orf10 (11716521_a_at) / Fold change /veh C10orf10 (11716521_a_at) / RFU C5orf56 (11738089_at) / Fold change /veh C5orf56 (11738089_at) / RFU CYB561 (11721691_x_at) / Fold change /veh CYB561 (11721691_x_at) / RFU ANKRD19P (11752326_a_at) / Fold change /veh ANKRD19P (11752326_a_at) / RFU OR2T12 /// OR2T33 /// OR2T8 (11738714_s_at) / Fold change /veh OR2T12 /// OR2T33 /// OR2T8 (11738714_s_at) / RFU VCAN (11748164_a_at) / Fold change /veh VCAN (11748164_a_at) / RFU JSRP1 (11732532_at) / Fold change /veh JSRP1 (11732532_at) / RFU KRTAP10-11 (11738290_x_at) / Fold change /veh KRTAP10-11 (11738290_x_at) / RFU MYO3A (11730013_a_at) / Fold change /veh MYO3A (11730013_a_at) / RFU EBF3 (11725865_a_at) / Fold change /veh EBF3 (11725865_a_at) / RFU CAMK2N1 (11719241_x_at) / Fold change /veh CAMK2N1 (11719241_x_at) / RFU C5orf56 (11738088_a_at) / Fold change /veh C5orf56 (11738088_a_at) / RFU OLFML3 (11715873_a_at) / Fold change /veh OLFML3 (11715873_a_at) / RFU LOC100653217 /// NTM (11731650_a_at) / Fold change /veh LOC100653217 /// NTM (11731650_a_at) / RFU MAPK11 (11762145_a_at) / Fold change /veh MAPK11 (11762145_a_at) / RFU FIZ1 (11724087_x_at) / Fold change /veh FIZ1 (11724087_x_at) / RFU OASL (11726364_x_at) / Fold change /veh OASL (11726364_x_at) / RFU SOX15 (11748057_x_at) / Fold change /veh SOX15 (11748057_x_at) / RFU CD79A (11719716_a_at) / Fold change /veh CD79A (11719716_a_at) / RFU HIST1H1D (11736915_at) / Fold change /veh HIST1H1D (11736915_at) / RFU CASKIN2 (11723855_a_at) / Fold change /veh CASKIN2 (11723855_a_at) / RFU LOC730098 (11760151_x_at) / Fold change /veh LOC730098 (11760151_x_at) / RFU OR4N2 (11742367_at) / Fold change /veh OR4N2 (11742367_at) / RFU PRRT2 (11749266_a_at) / Fold change /veh PRRT2 (11749266_a_at) / RFU SNX32 (11753110_a_at) / Fold change /veh SNX32 (11753110_a_at) / RFU CDHR5 (11726645_a_at) / Fold change /veh CDHR5 (11726645_a_at) / RFU RCAN1 (11760418_a_at) / Fold change /veh RCAN1 (11760418_a_at) / RFU FAM167A (11723789_a_at) / Fold change /veh FAM167A (11723789_a_at) / RFU FAM26E (11764081_at) / Fold change /veh FAM26E (11764081_at) / RFU ISYNA1 (11749810_s_at) / Fold change /veh ISYNA1 (11749810_s_at) / RFU ACY1 (11761880_at) / Fold change /veh ACY1 (11761880_at) / RFU 11764098_at / Fold change /veh 11764098_at / RFU SAMD14 (11745864_x_at) / Fold change /veh SAMD14 (11745864_x_at) / RFU NPB (11741838_a_at) / Fold change /veh NPB (11741838_a_at) / RFU TMPRSS6 (11731388_a_at) / Fold change /veh TMPRSS6 (11731388_a_at) / RFU KRTAP10-2 (11738614_at) / Fold change /veh KRTAP10-2 (11738614_at) / RFU ARHGAP8 /// PRR5-ARHGAP8 (11727945_x_at) / Fold change /veh ARHGAP8 /// PRR5-ARHGAP8 (11727945_x_at) / RFU KRTAP5-7 /// NADSYN1 (11734609_at) / Fold change /veh KRTAP5-7 /// NADSYN1 (11734609_at) / RFU RASL12 (11751679_a_at) / Fold change /veh RASL12 (11751679_a_at) / RFU CDKN2B (11736163_a_at) / Fold change /veh CDKN2B (11736163_a_at) / RFU PRF1 (11729649_at) / Fold change /veh PRF1 (11729649_at) / RFU, ZNF638 /// ZNF638-IT1 / Fold change vs veh, ZNF638 /// ZNF638-IT1 / RFU, PANK3 / Fold change vs veh, PANK3 / RFU, SH3YL1 / Fold change vs veh, SH3YL1 / RFU, ZEB2 / Fold change vs veh, ZEB2 / RFU, NRIP1 / Fold change vs veh, NRIP1 / RFU, PTTG1IP / Fold change vs veh, PTTG1IP / RFU, CAPN2 / Fold change vs veh, CAPN2 / RFU, MED14 / Fold change vs veh, MED14 / RFU, SNORA58 / Fold change vs veh, SNORA58 / RFU, C1orf63 / Fold change vs veh, C1orf63 / RFU, LRRFIP1 / Fold change vs veh, LRRFIP1 / RFU, NDUFAF7 / Fold change vs veh, NDUFAF7 / RFU, SLC12A2 / Fold change vs veh, SLC12A2 / RFU, IBTK / Fold change vs veh, IBTK / RFU, ESF1 / Fold change vs veh, ESF1 / Fold change vs veh, TMEM50B / RFU, TAOK1 / Fold change vs veh, TAOK1 / RFU, ACBD3 / Fold change vs veh, ACBD3 / RFU, TMA16 / Fold change vs veh, TMA16 / RFU, RWDD3 / Fold change vs veh, RWDD3 / RFU, BCAT1 / Fold change vs veh, BCAT1 / RFU, EDEM3 / Fold change vs veh, EDEM3 / RFU, TMEM33 / Fold change vs veh, TMEM33 / RFU, WDR75 / Fold change vs veh, WDR75 / RFU, AHCTF1 / Fold change vs veh, AHCTF1 / RFU, TFRC / Fold change vs veh, TFRC / RFU, ZDHHC17 / Fold change vs veh, ZDHHC17 / RFU, NOM1 / Fold change vs veh, NOM1 / RFU, ARL8B / Fold change vs veh, ARL8B / RFU, ZBTB11 / Fold change vs veh, ZBTB11 / RFU, TAMM41 / Fold change vs veh, TAMM41 / RFU, KIAA1704 /// LOC100996395 / Fold change vs veh, KIAA1704 /// LOC100996395 / RFU, ING1 / Fold change vs veh, ING1 / RFU, TRMT61B / Fold change vs veh, TRMT61B / RFU, FUBP3 / Fold change vs veh, FUBP3 / RFU, TP53 / Fold change vs veh, TP53 / RFU, TNKS2 / Fold change vs veh, TNKS2 / RFU, ZFP14 / Fold change vs veh, ZFP14 / RFU, ACTR2 / Fold change vs veh, ACTR2 / RFU, PPP3R1 / Fold change vs veh, PPP3R1 / RFU, PIK3R1 / Fold change vs veh, PIK3R1 / RFU, HNRNPA1 / Fold change vs veh, HNRNPA1 / RFU, RNF170 / Fold change vs veh, RNF170 / RFU, ZNF28 / Fold change vs veh, ZNF28 / RFU, RNGTT / Fold change vs veh, RNGTT / RFU, OGT / Fold change vs veh, OGT / RFU, BRD1 / Fold change vs veh, BRD1 / RFU, MARS / Fold change vs veh, MARS / RFU, ZNF655 / Fold change vs veh, ZNF655 / RFU, FAHD1 / Fold change vs veh, FAHD1 / RFU, BDP1 / Fold change vs veh, BDP1 / RFU, LRRCC1 / Fold change vs veh, LRRCC1 / RFU, ARID1A / Fold change vs veh, ARID1A / RFU, ZNF146 / Fold change vs veh, ZNF146 / RFU, ZNF330 / Fold change vs veh, ZNF330 / RFU, GPN3 / Fold change vs veh, GPN3 / RFU, C9orf123 / Fold change vs veh, C9orf123 / RFU, N4BP2L2 / Fold change vs veh, N4BP2L2 / RFU, ARFIP1 / Fold change vs veh, ARFIP1 / RFU, FAM179B / Fold change vs veh, FAM179B / RFU, BCL10 / Fold change vs veh, BCL10 / RFU, UHRF1BP1L / Fold change vs veh, UHRF1BP1L / RFU, BET1 / Fold change vs veh, BET1 / RFU, CNOT2 / Fold change vs veh, CNOT2 / RFU, ZNF268 / Fold change vs veh, ZNF268 / Fold change vs veh, ZNF507 / RFU, DGCR2 / Fold change vs veh, DGCR2 / RFU, WDSUB1 / Fold change vs veh, WDSUB1 / Fold change vs veh, HSP90B1 /// MIR3652 / RFU, ADSS / Fold change vs veh, ADSS / RFU, GK / Fold change vs veh, GK / RFU, ZNF148 / Fold change vs veh, ZNF148 / RFU, TAF9 / Fold change vs veh, TAF9 / RFU, SLC1A5 / Fold change vs veh, SLC1A5 / RFU, SLMO2 / Fold change vs veh, SLMO2 / RFU, ABCC4 / Fold change vs veh, ABCC4 / RFU, LOC101060439 /// RAP1B / Fold change vs veh, LOC101060439 /// RAP1B / RFU, RFX7 / Fold change vs veh, RFX7 / RFU, GTPBP10 / Fold change vs veh, GTPBP10 / RFU, CNEP1R1 / Fold change vs veh, CNEP1R1 / RFU, BIVM-ERCC5 /// ERCC5 / Fold change vs veh, BIVM-ERCC5 /// ERCC5 / RFU, ILF3 / Fold change vs veh, ILF3 / RFU 11762660_at / Fold change /veh 11762660_at / RFU VCAN (11757783_s_at) / Fold change /veh VCAN (11757783_s_at) / RFU DDX43 (11728927_at) / Fold change /veh DDX43 (11728927_at) / RFU KRT8 (11758188_x_at) / Fold change /veh KRT8 (11758188_x_at) / RFU NKD1 (11759106_at) / Fold change /veh NKD1 (11759106_at) / RFU SRD5A1 (11742802_a_at) / Fold change /veh SRD5A1 (11742802_a_at) / RFU TPSAB1 /// TPSB2 (11721975_s_at) / Fold change /veh TPSAB1 /// TPSB2 (11721975_s_at) / RFU GSTM3 (11746129_a_at) / Fold change /veh GSTM3 (11746129_a_at) / RFU IL23R (11737362_x_at) / Fold change /veh IL23R (11737362_x_at) / RFU TMEM51 (11727254_a_at) / Fold change /veh TMEM51 (11727254_a_at) / RFU PIWIL2 (11732686_x_at) / Fold change /veh PIWIL2 (11732686_x_at) / RFU ORM1 (11744905_x_at) / Fold change /veh ORM1 (11744905_x_at) / RFU CCDC152 (11743942_at) / Fold change /veh CCDC152 (11743942_at) / RFU ECM1 (11717891_a_at) / Fold change /veh ECM1 (11717891_a_at) / RFU IL23R (11748794_a_at) / Fold change /veh IL23R (11748794_a_at) / RFU TNFAIP8L3 (11732012_x_at) / Fold change /veh TNFAIP8L3 (11732012_x_at) / RFU MBOAT4 (11741988_at) / Fold change /veh MBOAT4 (11741988_at) / RFU 11764193_at / Fold change /veh 11764193_at / RFU TMEM53 (11763286_at) / Fold change /veh TMEM53 (11763286_at) / RFU MAGEB2 (11727129_at) / Fold change /veh MAGEB2 (11727129_at) / RFU TMEM200A (11744735_a_at) / Fold change /veh TMEM200A (11744735_a_at) / RFU CCDC152 (11751479_a_at) / Fold change /veh CCDC152 (11751479_a_at) / RFU FAM211A (11726209_a_at) / Fold change /veh FAM211A (11726209_a_at) / RFU RGS16 (11746705_a_at) / Fold change /veh RGS16 (11746705_a_at) / RFU VCAN (11755009_s_at) / Fold change /veh VCAN (11755009_s_at) / RFU RHOB (11743442_s_at) / Fold change /veh RHOB (11743442_s_at) / RFU RGS16 (11720943_a_at) / Fold change /veh RGS16 (11720943_a_at) / RFU RGS16 (11720944_at) / Fold change /veh RGS16 (11720944_at) / RFU, VPS4B / Fold change vs veh, VPS4B / RFU, CREB1 / Fold change vs veh, CREB1 / RFU, DNAJC13 / Fold change vs veh, DNAJC13 / RFU, GNAQ / Fold change vs veh, GNAQ / RFU, CDK5R1 / Fold change vs veh, CDK5R1 / RFU, ZRANB3 / Fold change vs veh, ZRANB3 / RFU, CUL4A / Fold change vs veh, CUL4A / RFU, CCNY / Fold change vs veh, CCNY / RFU, UFL1 / Fold change vs veh, UFL1 / RFU, COG3 / Fold change vs veh, COG3 / RFU, DIAPH2 / Fold change vs veh, DIAPH2 / RFU, SKA2 / Fold change vs veh, SKA2 / RFU, AFF3 / Fold change vs veh, AFF3 / RFU, LMF1 / Fold change vs veh, LMF1 / RFU, IPO11 / Fold change vs veh, IPO11 / RFU, DFFB / Fold change vs veh, DFFB / RFU, FOXP1 / Fold change vs veh, FOXP1 / RFU, CARD8 / Fold change vs veh, CARD8 / RFU, STRN3 / Fold change vs veh, STRN3 / RFU, ADK / Fold change vs veh, ADK / RFU, RASSF2 / Fold change vs veh, RASSF2 / RFU, WIPF1 / Fold change vs veh, WIPF1 / RFU, LARP1B / Fold change vs veh, LARP1B / RFU, RASA1 / Fold change vs veh, RASA1 / RFU, RB1 / Fold change vs veh, RB1 / RFU, PPFIA1 / Fold change vs veh, PPFIA1 / RFU, MAT2A / Fold change vs veh, MAT2A / RFU, CCT5 / Fold change vs veh, CCT5 / RFU, WDR92 / Fold change vs veh, WDR92 / RFU, CUX1 / Fold change vs veh, CUX1 / RFU, TTC7A / Fold change vs veh, TTC7A / RFU, TMEM135 / Fold change vs veh, TMEM135 / RFU, DEPTOR / Fold change vs veh, DEPTOR / RFU, CPM / Fold change vs veh, CPM / RFU, DNAJB6 / Fold change vs veh, DNAJB6 / RFU, CACNA2D3 / Fold change vs veh, CACNA2D3 / RFU, DTX4 / Fold change vs veh, DTX4 / RFU, TFCP2 / Fold change vs veh, TFCP2 / RFU, GMCL1 /// GMCL1P1 / Fold change vs veh, GMCL1 /// GMCL1P1 / RFU, AEBP2 / Fold change vs veh, AEBP2 / RFU, SNHG1 /// SNORD22 /// SNORD25 /// SNORD26 /// SNORD27 /// SNORD28 /// SNORD29 /// SNORD31 / Fold change vs veh, SNHG1 /// SNORD22 /// SNORD25 /// SNORD26 /// SNORD27 /// SNORD28 /// SNORD29 /// SNORD31 / Fold change (Aza/veh), C12orf56 (ProbeSet 11735607_a_at) / Fold change (ACY-1035/veh), C12orf56 (ProbeSet 11735607_a_at) / Fold change (Aza/veh), FGFR1OP (ProbeSet 11751329_s_at) / Fold change (ACY-1035/veh), FGFR1OP (ProbeSet 11751329_s_at) / Fold change (Aza/veh), VPS36 (ProbeSet 11739960_a_at) / Fold change (ACY-1035/veh), VPS36 (ProbeSet 11739960_a_at) / RFU SYPL1 (11715823_x_at) / Fold change /veh SYPL1 (11715823_x_at) / RFU IGFBP7 (11715501_s_at) / Fold change /veh IGFBP7 (11715501_s_at) / RFU REEP3 (11722064_at) / Fold change /veh REEP3 (11722064_at) / RFU IGLL1 (11728026_x_at) / Fold change /veh IGLL1 (11728026_x_at): dose or concentration left out as unconfirmed. Format: cell-based, human.

Regarding `Nc1ncn([C@@H]2O[C@H](CO)[C@@H](O)[C@H]2O)c(=O)n1` [azacitidine], the “RFU, CAPN2” value is 169.72 RFU.
